Data published in patent US20100240594A1, “TARGETED DELIVERY OF CHEMOTHERAPEUTIC AGENTS” (Burnham Institute for Medical Research, priority 2009, published 2010).

System: pre-established subcutaneous PC3 tumors
Assay: Tumor growth in PC3 tumor-bearing mice treated i.v. twice a week
Type: in vivo, SCID-beige mice
Details: i.v. twice weekly from day 19 for ~3 weeks; taxol 5 mg/Kg, doxorubicin 2 mg/Kg, YSA conjugates at 1 and 5 fold molar equivalents of the parent drug dose
Experimental: Tumor sizes were measured and averages +/−SE are shown. The data in (A) and (B) are from the same experiment and share the same control.

Row | SMILES | tumor growth inhibition compared with vehicle control
1 | CC(=O)O[C@H]1C(=O)[C@@]2(C)[C@H]([C@H](OC(=O)c3ccccc3)[C@]3(O)C[C@H](OC(=O)[C@H](O)[C@@H](NC(=O)c4ccccc4)c4ccccc4)C(C)=C1C3(C)C)[C@]1(OC(C)=O)CO[C@@H]1C[C@@H]2O [taxol] | not significantly different from vehicle control
2 | COc1cccc2c1C(=O)c1c(O)c3c(c(O)c1C2=O)C[C@@](O)(C(=O)CO)C[C@@H]3O[C@H]1C[C@H](N)[C@H](O)[C@H](C)O1 [doxorubicin] | not significantly different from vehicle control
